Data published in patent US12043652B2, “Engineered extracellular receptor constructs and uses thereof” (TRUSTEES OF BOSTON UNIVERSITY, priority 2020, dated 2024).
Entries after “also recorded” stand apart in the source; their conditions may differ.

Assays:
Assay type in all cases: cell-based
[1] = test system: BCL-xL-BH3(G22)-Gal4-VP64 sensor; experiment: BCL-xL-BH3(G22)-Gal4-VP64 sensor: ICD driven H2B-mCherry reporter expression
Experimental: FIG. 3 Activity of BCL-xL-BH3(G22)-Gal4-VP64 upon presence of BCL-xL inhibitors. BCL-xL serves as a ligand binding domain and BH3(G22) serves as an intramolecular peptide. […] H2B mCherry expression is visualized via microscopy. A fluorescent transfection marker is also shown to verify the presence of cells as a smaller corresponding image. Images were taken 48 hours after transfection and drug addition. Scale bar 50 μm.
(§1) Upon addition of inducer and either gamma secretase inhibitor, H2B-mCherry signal is ablated. Images are taken 24 hours after transfection and drug addition. A fluorescent transfection marker is shown as a smaller corresponding image. […] Scale bar 50 μm.
The inventors next applied this methodology to a completely different LBD and peptide pair, BCL-xL and the BH3(G22) peptide, while keeping the ICD the same.

γ-secretase = experiment: Gamma secretase dependence of two sensors (H2B-mCherry reporter with inducer plus gamma secretase inhibitor); details: dNS3-(EDVVCC) and BCL-xL-BH3(G22) sensors, inducer grazoprevir 3 μM or ABT-737 3 μM, DAPT 5 μM, Compound E 1 μM, 24 hours
Experimental: FIG. 4 Gamma secretase dependence of two distinct sensors. dNS3-(EDVVCC (SEQ ID NO: 57))-TMD-Gal4-VP64 and BCL-xL-BH3(G22)-TMD-Gal4-VP64 sensors were tested for gamma secretase dependence via the addition of gamma secretase inhibitors DAPT and Compound E (Cpd E). […] Upon addition of inducer and either gamma secretase inhibitor, H2B-mCherry signal is ablated. Images are taken 24 hours after transfection and drug addition. A fluorescent transfection marker is shown as a smaller corresponding image. Drug concentrations are as follows: NS3 inducer, grazoprevir 3 μM; BCL-xL inducer, ABT-737 3 μM; DAPT 5 μM; Compound E 1 μM. Scale bar 50 μm.
To probe into the mechanism of activation for the antiviral drug sensors and ABT-737 sensor, the inventors next inhibited γ-secretase with selective inhibitors, DAPT and compound E. Upon inhibition with either of these compounds, ICD driven activation of H2B-mCherry was inhibited (FIG. 4). Inhibition also occurred despite the presence of each associated sensor inducer, indicating γ-secretase plays a crucial role in MIMOsensor activation and is required for ICD release.

[2] = biological target: T1, catalytically inactive NS3 protease (NS3^S139A, dNS3) sensor (Hepatitis C virus genotype 1a, UniProt P27958, S1165A); details: drug grazoprevir; histograms of H2B-mCherry, flow cytometry, 48 hours post-drug addition
T1 construct: transmembrane domain with γ-secretase cleavage site (TMD) (internal); Gal4-VP64 intracellular domain (C); expressed in transfected cells
T1 sequence (P27958 1027-1208 S1165A): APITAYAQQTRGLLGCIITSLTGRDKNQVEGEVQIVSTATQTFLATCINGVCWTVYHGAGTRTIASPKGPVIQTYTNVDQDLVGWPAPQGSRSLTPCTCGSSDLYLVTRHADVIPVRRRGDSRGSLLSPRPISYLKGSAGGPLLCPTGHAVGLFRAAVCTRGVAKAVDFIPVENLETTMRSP
Experimental: FIGS. 2A-2B. (FIG. 2A) Schematic of antiviral drug sensor which is designed to sense Hepatitis C Virus NS3 inhibitors. (FIG. 2B) Two sensors with varying sensitivity to antiviral drug based on the affinity of their intramolecular peptide. Activity of the sensor is shown as histograms of intracellular domain driven H2B-mCherry expression in clonal cell lines, measured by flow cytometry, 48 hours post-drug addition. […] Red arrows are drawn to highlight differences in sensitivity to ligand. Drug is grazoprevir or delivery vehicle control, DMSO.
as §1
For proof of concept, the ICD chosen was a synthetic transcription factor, Gal4-VP64, which activates UAS promoter driven H2B-mCherry gene expression. […] The substitution of the high affinity peptide for low affinity peptide appears to increase the sensitivity of the sensor, consistent with the theory of competitive displacement kinetics.

Row | Compound | ICD driven activation of H2B-mCherry in presence of sensor inducer (γ-secretase) | sensitivity of the sensor to antiviral drug, by intramolecular peptide [2] | further results
1 | CN(C)CC[C@H](CSc1ccccc1)Nc1ccc(S(=O)(=O)NC(=O)c2ccc(N3CCN(Cc4ccccc4-c4ccc(Cl)cc4)CC3)cc2)cc1[N+](=O)[O-] [ABT-737] |  |  | ICD driven H2B-mCherry expression ([1]; BCL-xL-BH3(G22)-TMD-Gal4-VP64 sensor, ABT-737 3 μM, images 24 hours after transfection and drug addition): activates ICD driven H2B-mCherry expression; activation of H2B-mCherry (sensor response to drug) ([1]; microscopy, 48 hours after transfection and drug addition): concentration dependent activation
2 | C[C@H](NC(=O)Cc1cc(F)cc(F)c1)C(=O)N[C@H]1N=C(c2ccccc2)c2ccccc2N(C)C1=O [Compound E] | ablated |  | ICD driven activation of H2B-mCherry in presence of sensor inducer (γ-secretase; listed as compound E): inhibited
3 | C[C@H](NC(=O)Cc1cc(F)cc(F)c1)C(=O)N[C@H](C(=O)OC(C)(C)C)c1ccccc1 [DAPT] | inhibited; also recorded: ablated |  | 
4 | DEEMEEC |  | high sensitivity | 
5 | GELDELVYLLDGPGYDPIHS [CP5-46A-4D5E] |  | intermediate sensitivity | 
